Experimental data reported in ChEMBL document CHEMBL1141477, “Synthesis and anticancer activity studies of cyclopamine derivatives” (Bioorg Med Chem Lett, 2008).
Calls of active or inactive are those of the source. No cut-off for these calls is given here.

How the values were obtained:
A549 [1] = experiment: Anticancer activity against human A549 cells by MTS assay; assay type: functional, cell-based
A549 [2] = experiment: Anticancer activity against human A549 cells at 200 uM by MTS assay; assay type: functional, cell-based

Compound	IC50 (A549 [1]) [µM]	Activity (A549 [2])
CC1=C2C[C@H]3[C@@H](CC=C4C[C@@H](O)CC[C@@]43C)[C@@H]2CC[C@]12O[C@@H]1C[C@H](C)CN[C@H]1[C@H]2C [CYCLOPAMINE]	49	–
CC(=O)OC[C@H]1O[C@@H](O[C@H]2[C@H](OC(C)=O)[C@@H](OC(C)=O)[C@H](n3cc(CN4C[C@@H](C)C[C@H]5O[C@]6(CC[C@@H]7C(=C6C)C[C@H]6[C@H]7CC=C7C[C@@H](O)CC[C@@]76C)[C@H](C)[C@@H]54)nn3)O[C@@H]2COC(C)=O)[C@H](OC(C)=O)[C@@H](OC(C)=O)[C@H]1OC(C)=O	183	–
CC(=O)N[C@@H]1[C@@H](OC(C)=O)[C@@H](OC(C)=O)[C@@H](COC(C)=O)O[C@H]1n1cc(CN2C[C@@H](C)C[C@H]3O[C@]4(CC[C@@H]5C(=C4C)C[C@H]4[C@H]5CC=C5C[C@@H](O)CC[C@@]54C)[C@H](C)[C@@H]32)nn1	–	inactive
CC(=O)OC[C@H]1O[C@@H](n2cc(CN3C[C@@H](C)C[C@H]4O[C@]5(CC[C@@H]6C(=C5C)C[C@H]5[C@H]6CC=C6C[C@@H](O)CC[C@@]65C)[C@H](C)[C@@H]43)nn2)[C@H](OC(C)=O)[C@@H](OC(C)=O)[C@@H]1O[C@@H]1O[C@H](COC(C)=O)[C@@H](O[C@@H]2O[C@H](COC(C)=O)[C@@H](OC(C)=O)[C@H](OC(C)=O)[C@H]2OC(C)=O)[C@H](OC(C)=O)[C@H]1OC(C)=O	96	–
CC(=O)OC[C@H]1O[C@@H](n2cc(CN3C[C@@H](C)C[C@H]4O[C@]5(CC[C@@H]6C(=C5C)C[C@H]5[C@H]6CC=C6C[C@@H](O)CC[C@@]65C)[C@H](C)[C@@H]43)nn2)[C@H](OC(C)=O)[C@@H](OC(C)=O)[C@H]1OC(C)=O	–	inactive
CC(=O)O[C@@H]1[C@@H](OC(C)=O)[C@@H](n2cc(CN3C[C@@H](C)C[C@H]4O[C@]5(CC[C@@H]6C(=C5C)C[C@H]5[C@H]6CC=C6C[C@@H](O)CC[C@@]65C)[C@H](C)[C@@H]43)nn2)OC[C@H]1OC(C)=O	–	inactive
CC(=O)N[C@@H]1[C@@H](OC(C)=O)[C@H](OC(C)=O)[C@@H](COC(C)=O)O[C@H]1n1cc(CN2C[C@@H](C)C[C@H]3O[C@]4(CC[C@@H]5C(=C4C)C[C@H]4[C@H]5CC=C5C[C@@H](O)CC[C@@]54C)[C@H](C)[C@@H]32)nn1	–	inactive
CC(=O)OC[C@H]1OC(n2cc(CN3C[C@@H](C)C[C@H]4O[C@]5(CC[C@@H]6C(=C5C)C[C@H]5[C@H]6CC=C6C[C@@H](O)CC[C@@]65C)[C@H](C)[C@@H]43)nn2)[C@@H](OC(C)=O)[C@@H](OC(C)=O)[C@@H]1OC(C)=O (stereo partly specified)	–	inactive
CC(=O)O[C@@H]1[C@@H](OC(C)=O)[C@@H](OC(C)=O)C(n2cc(CN3C[C@@H](C)C[C@H]4O[C@]5(CC[C@@H]6C(=C5C)C[C@H]5[C@H]6CC=C6C[C@@H](O)CC[C@@]65C)[C@H](C)[C@@H]43)nn2)O[C@H]1C (stereo partly specified)	33	–
CC(=O)OC[C@H]1O[C@@H](n2cc(CN3C[C@@H](C)C[C@H]4O[C@]5(CC[C@@H]6C(=C5C)C[C@H]5[C@H]6CC=C6C[C@@H](O)CC[C@@]65C)[C@H](C)[C@@H]43)nn2)[C@H](OC(C)=O)[C@@H](OC(C)=O)[C@@H]1O[C@@H]1O[C@H](COC(C)=O)[C@@H](OC(C)=O)[C@H](OC(C)=O)[C@H]1OC(C)=O	–	inactive
CC(=O)OC[C@H]1O[C@@H](n2cc(CN3C[C@@H](C)C[C@H]4O[C@]5(CC[C@@H]6C(=C5C)C[C@H]5[C@H]6CC=C6C[C@@H](O)CC[C@@]65C)[C@H](C)[C@@H]43)nn2)[C@H](OC(C)=O)[C@@H](OC(C)=O)[C@@H]1OC(C)=O	144	–
